Reference: patent publication US4030886A, “Saturation analysis” (The Radiochemical Centre Limited, priority 1973, dated 1977)
“And” between values parts separate entries of the source, which are not always exact repeats. Identical values can stand only once.

Columns and labels:
[1] = tested on: antiserum raised in rabbits against estriol-6-CMO-BSA; test: Assay for estriol using 2-(methylseleno)-ethylamine-Se75 conjugate of estriol-6CMO; format: binding, rabbit; conditions: 300 pg label, antiserum 1:200
Procedure: Into each assay tube was dispensed 0.1M phosphate buffer containing 5% human serum (pH 7.0; 200 μl), antiserum raised in rabbits against estriol-6-CMO-BSA and diluted 1 : 200 in 0.1M phosphate buffer containing 5% human serum (200 μl), and 2-(methylseleno)-Ethylamine-Se 75 conjugate of estriol-6-CMO (300 pg; 18 Ci/m mol).

[2] = target: T1, transcortin (charcoal treated rabbit serum) (Oryctolagus cuniculus, UniProt P23775); test: Assay for cortisol using 2-methylseleno-1-dehydro-cortisol-21-acetate-Se75; format: binding; conditions: for Counts - BKG in 300 sec: 2.5 ng label
T1 construct: charcoal treated rabbit serum; from tissue; host or cells: rabbit serum, charcoal treated
T1 sequence (P23775 1-383): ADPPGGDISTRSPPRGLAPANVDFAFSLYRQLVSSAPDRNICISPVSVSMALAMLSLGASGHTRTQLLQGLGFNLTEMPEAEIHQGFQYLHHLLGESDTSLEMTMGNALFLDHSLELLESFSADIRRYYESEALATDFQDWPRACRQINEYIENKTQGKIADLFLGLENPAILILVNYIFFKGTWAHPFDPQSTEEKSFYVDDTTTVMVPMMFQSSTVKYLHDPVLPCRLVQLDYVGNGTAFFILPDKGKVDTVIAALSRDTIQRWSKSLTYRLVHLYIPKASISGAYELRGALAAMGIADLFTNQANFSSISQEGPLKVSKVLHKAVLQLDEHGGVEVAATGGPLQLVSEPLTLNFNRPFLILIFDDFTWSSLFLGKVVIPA
Procedure: (§1) Into each glass assay tube was dispensed glycine buffer containing 1% sodium azide (pH 9.0; 5.5 ml), charcoal treated rabbit serum (50 μl), bis-2,2'-(21-acetoxy-1-dehydrocortisol)-diselenide-Se 75 (2.3 ng, sp. activity ca 6 Ci/m atom), and Sephadex G25 (1 g). […] The tubes were capped and rotated at room temperature for 1 hour using a blood cell suspension mixer. After this time an aliquot (1 ml) of the supernatant liquid was withdrawn from each tube and counted for 300 seconds using an NE8311 gamma counter.
Into each glass assay tube was dispensed 0.05M phosphate buffer containing sodium azide 1% (pH 7.4; 6 ml), charcoal treated rabbit serum (50 μl), 2-methylseleno-1-dehydrocortisol-21-acetate-Se75) (2.5 ng; sp. activity ca 3 Ci/m atom), and Sephadex G25 (1 g).
The assay procedure was identical with that described above.

[3] = tested on: Antisera raised in rabbits to testosterone 3-carboxymethyloxime-BSA; test: Radioimmunoassay for testosterone, antiserum dilution curve; format: binding, rabbit; conditions: for % Bound: 25pg label per assay tube
Procedure: Antisera were raised in rabbits to testosterone 3-carboxymethyloxime-BSA.
SE75 labelled 2-methylseleno-1-dehydrotestosterone (specific activity 15-20 Ci/mmol) was prepared by base catalysed hydrolysis of 2-methylseleno 1-dehydrotestosterone acetate which is described in our prior patent specification.
Antiserum dilution curves were set up in the usual way using antiserum and labelled testosterone as described above.
Typical figures for the antiserum dilution curves when 25pg labelled testosterone was used per assay tube are: […]

[4] = tested on: antiserum raised to digoxin; test: Dilution curve for 3-methylselenodigoxigenin; format: binding; conditions: for Mean Count: 200 μl supernatant
Procedure: An antiserum dilution curve for 3-methylselenodigoxigenin-Se 75 (specific activity 16 Ci/m mol) in buffered saline (0.15M NaCl, 0.05M KH2 PO4, 0.1% Na N3, and 0.1% BSA) was made up at a concentration of 0.0228 n mol/ml. Dilutions of antiserum raised to digoxin were prepared in assay buffer at 1/50, 1/100, 1/200, 1/400, 1/500, 1/800, 1/1000. Tubes were set up in duplicate for total activity, blanks, and antiserum dilutions as follows: total activity, 50 μl ^75 Se compound and 250 μl assay buffers; blanks, 50 μl ^75 Se compound and 150 μl assay buffer; antiserum dilutions, 50 μl ^75 Se compound, 100 μl buffer and 50 μl antiserum. The tubes were incubated for 30 minutes after which 100 μl of charcoal (0.65 g Norit OL in 50 ml assay buffer + 1 gram BSA) was added to each tube except the totals. After 10 minutes incubation the tubes were centrifuged and a 200 μl sample of the supernatant was counted.

[5] = target: T2, Transcortin from rabbit serum (Oryctolagus cuniculus, UniProt P23775); test: CPB assay for cortisol using Se-75 labelled bis-2,2'-(1-dehydrocorticosterone)-diselenide; format: binding
T2 construct: Transcortin from rabbit serum; from tissue; host or cells: rabbit serum
T2 sequence (P23775 1-383): T1 sequence (P23775 1-383)
Procedure: as §1
Se-75 labelled bis-2,2'-(1-dehydrocorticosterone)-diselenide was prepared by base hydrolysis of Se75-labelled bis-2,2'-(21-acetoxy-1-dehydrocorticosterone) diselenide which is described in our U.S. Ser. No. 426,695.
Using this radiolabelled material an assay for cortisol was set up as described in Example 1. Transcortin from rabbit serum was used as the source of binding protein and Sephadex G25 was used to separate protein free and bound material.
Typical results obtained using standard solutions of unlabelled cortisol to displace the labelled Δ^1 -corticosterone diselenide are: […]

[6] = target: T1, transcortin (charcoal treated rabbit serum); test: Assay for cortisol using Se-75 labelled bis-2,2'-(21-acetoxy-1-dehydrocortisol)-diselenide (competitive protein binding, Sephadex G25 separation); conditions: 2.3 ng label, 1 ml supernatant
Procedure: as §1

[7] = target: T1, transcortin (charcoal treated rabbit serum); test: Assay for cortisol - the use of β-mercaptoethanol in situ, tubes stored before use; format: binding
Procedure: as §1
Bis-2,2'-(21-acetoxy-1-dehydrocortisol)-diselenide-Se75 (100ng) in ethanol (10 ul) was added with stirring to a solution of β-mercaptoethanol (20 μl) in 0.05M phosphate buffer (pH 7.4; 1 ml). The mixture was left at room temperature for 20 minutes and then was added to a solution of 0.05M phosphate buffer (pH 7.4; 480 ml) containing sodium azide (1%) and charcoal treated rabbit serum (2 ml). After thorough mixing this solution was dispensed (in 6 ml aliquots) into glass assay tubes each containing Sephadex G25 (1 g). The tubes were capped and stored at room temperature until required, when the assay was then carried out as described above.

Structure (SMILES): C[75Se]CCNC(=O)CON=C1C[C@@H]2[C@H](CC[C@]3(C)[C@@H](O)[C@H](O)C[C@@H]23)c2ccc(O)cc21 [2-(methylseleno)-ethylamine - Se 75 conjugate of estriol-6-carboxymethyloxime]
- % of total counts bound minus blanks ([1]; 0 ng estriol added): 45.9%
- % of total counts bound minus blanks ([1]; 1.5 ng estriol added): 37.5%
- % of total counts bound minus blanks ([1]; 3.1 ng estriol added): 35.6%
- % of total counts bound minus blanks ([1]; 6.3 ng estriol added): 32.0%
- % of total counts bound minus blanks ([1]; 12.5 ng estriol added): 29.2%
- % of total counts bound minus blanks ([1]; 25 ng estriol added): 24.7%

Structure (SMILES): C[75Se]C1=C[C@@]2(C)C(=CC1=O)CC[C@@H]1[C@@H]2[C@@H](O)C[C@@]2(C)[C@H]1CC[C@]2(O)C(=O)COC(C)=O [2-methylseleno-1-dehydrocortisol-21-acetate-Se75]
- Counts - BKG in 300 sec ([2]; cortisol standard 0 μg/100 ml): 37447 and 37551
- Counts - BKG in 300 sec ([2]; cortisol standard 2 μg/100 ml): 36495 and 36981
- Counts - BKG in 300 sec ([2]; cortisol standard 4 μg/100 ml): 35381 and 34565
- Counts - BKG in 300 sec ([2]; cortisol standard 8 μg/100 ml): 31090 and 32353
- Counts - BKG in 300 sec ([2]; cortisol standard 16 μg/100 ml): 28011 and 28180
- Counts - BKG in 300 sec ([2]; cortisol standard 32 μg/100 ml): 24135 and 24340
- Counts - BKG in 300 sec ([2]; cortisol standard 64 μg/100 ml): 21601 and 21777
- dose-response curve of the cortisol assay ([2]; methylseleno- compared with the diseleno- derivative as label): steeper dose-response curve

Structure (SMILES): C[75Se]C1=C[C@@]2(C)C(=CC1=O)CC[C@H]1[C@@H]3CC[C@H](O)[C@@]3(C)CC[C@@H]12 [2-methylseleno-1-dehydrotestosterone]
- antiserum dilution curves compared with tritiated testosterone as label [3]: identical to those obtained when tritiated testosterone was used as label
- % Bound ([3]; antiserum dilution 1/10^2): 85%
- % Bound ([3]; antiserum dilution 1/10^3): 80%
- % Bound ([3]; antiserum dilution 1/10^4): 45%
- % Bound ([3]; antiserum dilution 1/10^5): 18%
- % Bound ([3]; antiserum dilution 1/10^6): 13%

Structure (SMILES): C[75Se]C1CC[C@@]2(C)[C@H](CC[C@@H]3[C@@H]2C[C@@H](O)[C@]2(C)[C@@H](C4=CC(=O)OC4)CC[C@]32O)C1 (some centres unmarked) [3-methylselenodigoxigenin-Se 75]
- % of Total Counts Bound ([4]; antiserum 1/50 dilution): 97.0%
- Mean Count ([4]; antiserum 1/50 dilution): 20750
- % of Total Counts Bound ([4]; antiserum 1/100 dilution): 80.6%
- Mean Count ([4]; antiserum 1/100 dilution): 17224
- % of Total Counts Bound ([4]; antiserum 1/200 dilution): 44.3%
- Mean Count ([4]; antiserum 1/200 dilution): 9489
- % of Total Counts Bound ([4]; antiserum 1/400 dilution): 26.8%
- Mean Count ([4]; antiserum 1/400 dilution): 5744
- % of Total Counts Bound ([4]; antiserum 1/500 dilution): 21.8%
- Mean Count ([4]; antiserum 1/500 dilution): 4659
- % of Total Counts Bound ([4]; antiserum 1/800 dilution): 15.3%
- Mean Count ([4]; antiserum 1/800 dilution): 3277
- % of Total Counts Bound ([4]; antiserum 1/1000 dilution): 12.2%
- Mean Count ([4]; antiserum 1/1000 dilution): 2602

Structure (SMILES): C[C@]12C[C@H](O)[C@H]3[C@@H](CCC4=CC(=O)C([75Se][75Se]C5=C[C@@]6(C)C(=CC5=O)CC[C@@H]5[C@@H]6[C@@H](O)C[C@]6(C)[C@@H](C(=O)CO)CC[C@@H]56)=C[C@@]43C)[C@@H]1CC[C@@H]2C(=O)CO [bis-2,2'-(1-dehydrocorticosterone)-diselenide]
- Counts - Bkgd ([5]; cortisol standard 2 μg/100 ml): 24700
- Counts - Bkgd ([5]; cortisol standard 4 μg/100 ml): 24100
- Counts - Bkgd ([5]; cortisol standard 8 μg/100 ml): 22800
- Counts - Bkgd ([5]; cortisol standard 16 μg/100 ml): 21800
- Counts - Bkgd ([5]; cortisol standard 32 μg/100 ml): 21200
- Counts - Bkgd ([5]; cortisol standard 64 μg/100 ml): 20700

Structure (SMILES): CC(=O)OCC(=O)[C@@]1(O)CC[C@H]2[C@@H]3CCC4=CC(=O)C([75Se][75Se]C5=C[C@@]6(C)C(=CC5=O)CC[C@@H]5[C@@H]6[C@@H](O)C[C@@]6(C)[C@H]5CC[C@]6(O)C(=O)COC(C)=O)=C[C@]4(C)[C@H]3[C@@H](O)C[C@@]21C [bis-2,2'-(21-acetoxy-1-dehydrocortisol)-diselenide-Se 75]
- Counts - Rkgd in 300 sec ([6]; cortisol standard 0 μg/100 ml): 34672 and 33573
- Counts - Rkgd in 300 sec ([6]; cortisol standard 2 μg/100 ml): 31116 and 32296
- Counts - Rkgd in 300 sec ([6]; cortisol standard 4 μg/100 ml): 31129 and 31389
- Counts - Rkgd in 300 sec ([6]; cortisol standard 8 μg/100 ml): 29987 and 30954
- Counts - Rkgd in 300 sec ([6]; cortisol standard 16 μg/100 ml): 29141 and 29356
- Counts - Rkgd in 300 sec ([6]; cortisol standard 32 μg/100 ml): 26842 and 25739
- Counts - Rkgd in 300 sec ([6]; cortisol standard 64 μg/100 ml): 23746 and 25895
- Counts per 100 seconds (corrected for background) ([7]; cortisol standard 2 μg/100 ml, storage time 1 day): 12814 and 13112
- Counts per 100 seconds (corrected for background) ([7]; cortisol standard 2 μg/100 ml, storage time 28 days): 13007 and 12356
- Counts per 100 seconds (corrected for background) ([7]; cortisol standard 4 μg/100 ml, storage time 1 day): 13012
- Counts per 100 seconds (corrected for background) ([7]; cortisol standard 4 μg/100 ml, storage time 28 days): 11884
- Counts per 100 seconds (corrected for background) ([7]; cortisol standard 8 μg/100 ml, storage time 1 day): 12754 and 12709
- Counts per 100 seconds (corrected for background) ([7]; cortisol standard 8 μg/100 ml, storage time 28 days): 11486 and 11624
- Counts per 100 seconds (corrected for background) ([7]; cortisol standard 16 μg/100 ml, storage time 1 day): 11980 and 11825
- Counts per 100 seconds (corrected for background) ([7]; cortisol standard 16 μg/100 ml, storage time 28 days): 10930 and 10467
- Counts per 100 seconds (corrected for background) ([7]; cortisol standard 32 μg/100 ml, storage time 1 day): 10988 and 10876
- Counts per 100 seconds (corrected for background) ([7]; cortisol standard 32 μg/100 ml, storage time 28 days): 10078 and 10365
- Counts per 100 seconds (corrected for background) ([7]; cortisol standard 64 μg/100 ml, storage time 1 day): 9636
- Counts per 100 seconds (corrected for background) ([7]; cortisol standard 64 μg/100 ml, storage time 28 days): 9967
